#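 Cultured in 96-well plates, cells were exposed to test compound for 48 hours across five concentrations. At the TGI there is no net growth.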
# Legend:
# Assay in all cases: NCI-60 cell line screen, 48 h
# CAKI-1 renal = tested on: CAKI-1 renal
# SN12C renal = tested on: SN12C renal
# A549 NSCLC = tested on: A549 NSCLC
# M14 melanoma = tested on: M14 melanoma
# SK-MEL-2 melanoma = tested on: SK-MEL-2 melanoma
# HCC-2998 colon = tested on: HCC-2998 colon
# SK-OV-3 ovarian = tested on: SK-OV-3 ovarian
# A498 renal = tested on: A498 renal
# OVCAR-4 ovarian = tested on: OVCAR-4 ovarian
# OVCAR-8 ovarian = tested on: OVCAR-8 ovarian
# HL-60(TB) leukemia = tested on: HL-60(TB) leukemia
# SNB-19 CNS = tested on: SNB-19 CNS
# SK-MEL-28 melanoma = tested on: SK-MEL-28 melanoma
# OVCAR-3 ovarian = tested on: OVCAR-3 ovarian
# OVCAR-5 ovarian = tested on: OVCAR-5 ovarian
# CCRF-CEM leukemia = tested on: CCRF-CEM leukemia
# RPMI-8226 leukemia = tested on: RPMI-8226 leukemia
# MALME-3M melanoma = tested on: MALME-3M melanoma
# HCT-116 colon = tested on: HCT-116 colon
# IGROV1 ovarian = tested on: IGROV1 ovarian
# U251 CNS = tested on: U251 CNS
# RXF 393 renal = tested on: RXF 393 renal
# ACHN renal = tested on: ACHN renal
# NCI-H226 lung = tested on: NCI-H226 lung
# COLO 205 colon = tested on: COLO 205 colon
# MCF7 breast = tested on: MCF7 breast
# SK-MEL-5 melanoma = tested on: SK-MEL-5 melanoma
# UACC-62 melanoma = tested on: UACC-62 melanoma
# MDA-MB-435 = tested on: MDA-MB-435
# K-562 leukemia = tested on: K-562 leukemia
# TK-10 renal = tested on: TK-10 renal
# SF-539 CNS = tested on: SF-539 CNS
# UACC-257 melanoma = tested on: UACC-257 melanoma
# MDA-N = tested on: MDA-N
# NCI-H23 lung = tested on: NCI-H23 lung
# DU-145 prostate = tested on: DU-145 prostate
# NCI-H460 lung = tested on: NCI-H460 lung
# SW-620 colon = tested on: SW-620 colon
# LOX IMVI melanoma = tested on: LOX IMVI melanoma
# BT-549 breast = tested on: BT-549 breast
# HOP-62 NSCLC = tested on: HOP-62 NSCLC
# SNB-75 CNS = tested on: SNB-75 CNS
# MOLT-4 leukemia = tested on: MOLT-4 leukemia
# NCI-H522 lung = tested on: NCI-H522 lung
# UO-31 renal = tested on: UO-31 renal
# SR leukemia = tested on: SR leukemia
# T-47D breast = tested on: T-47D breast
# HT29 colon = tested on: HT29 colon
# MDA-MB-231 breast = tested on: MDA-MB-231 breast
# 786-0 renal = tested on: 786-0 renal
# KM12 colon = tested on: KM12 colon
# NCI/ADR-RES ovarian = tested on: NCI/ADR-RES ovarian
# PC-3 prostate = tested on: PC-3 prostate
# HOP-92 NSCLC = tested on: HOP-92 NSCLC
# EKVX NSCLC = tested on: EKVX NSCLC
# SF-295 CNS = tested on: SF-295 CNS
# HCT-15 colon = tested on: HCT-15 colon
# SF-268 CNS = tested on: SF-268 CNS
structure (smiles),measurement,setting,value
C(=N\NC1=NCCCN1)/c1ccc(-c2cn3cc(/C=N/NC4=NCCCN4)ccc3n2)cc1,TGI,CAKI-1 renal,> 100 µM
same,TGI,SN12C renal,> 100 µM
same,TGI,A549 NSCLC,> 100 µM
same,TGI,M14 melanoma,> 100 µM
same,TGI,SK-MEL-2 melanoma,> 100 µM
same,TGI,HCC-2998 colon,> 100 µM
same,TGI,SK-OV-3 ovarian,> 100 µM
same,TGI,A498 renal,> 78.5 µM
same,TGI,OVCAR-4 ovarian,> 100 µM
same,TGI,OVCAR-8 ovarian,> 89 µM
same,TGI,HL-60(TB) leukemia,> 58.1 µM
same,TGI,SNB-19 CNS,> 100 µM
same,TGI,SK-MEL-28 melanoma,> 100 µM
same,TGI,OVCAR-3 ovarian,> 100 µM
same,TGI,OVCAR-5 ovarian,> 100 µM
same,TGI,CCRF-CEM leukemia,> 66.2 µM
same,TGI,RPMI-8226 leukemia,> 88.6 µM
same,TGI,MALME-3M melanoma,87.4 µM
same,TGI,HCT-116 colon,> 100 µM
same,TGI,IGROV1 ovarian,> 100 µM
same,TGI,U251 CNS,> 100 µM
same,TGI,RXF 393 renal,> 100 µM
same,TGI,ACHN renal,> 100 µM
same,TGI,NCI-H226 lung,> 100 µM
same,TGI,COLO 205 colon,> 100 µM
same,TGI,MCF7 breast,> 100 µM
same,TGI,SK-MEL-5 melanoma,> 100 µM
same,TGI,UACC-62 melanoma,> 100 µM
same,TGI,MDA-MB-435,> 100 µM
same,TGI,K-562 leukemia,> 84.3 µM
same,TGI,TK-10 renal,> 100 µM
same,TGI,SF-539 CNS,> 100 µM
same,TGI,UACC-257 melanoma,> 100 µM
same,TGI,MDA-N,> 100 µM
same,TGI,NCI-H23 lung,> 100 µM
same,TGI,DU-145 prostate,> 100 µM
same,TGI,NCI-H460 lung,> 100 µM
same,TGI,SW-620 colon,> 100 µM
same,TGI,LOX IMVI melanoma,> 100 µM
same,TGI,BT-549 breast,> 100 µM
same,TGI,HOP-62 NSCLC,> 100 µM
same,TGI,SNB-75 CNS,> 100 µM
same,TGI,MOLT-4 leukemia,11.8 µM
same,TGI,NCI-H522 lung,> 100 µM
same,TGI,UO-31 renal,> 100 µM
same,TGI,SR leukemia,> 29 µM
same,TGI,T-47D breast,> 100 µM
same,TGI,HT29 colon,> 71.7 µM
same,TGI,MDA-MB-231 breast,> 100 µM
same,TGI,786-0 renal,> 100 µM
same,TGI,KM12 colon,> 100 µM
same,TGI,NCI/ADR-RES ovarian,> 100 µM
same,TGI,PC-3 prostate,> 57.3 µM
same,TGI,HOP-92 NSCLC,> 100 µM
same,TGI,EKVX NSCLC,> 100 µM
same,TGI,SF-295 CNS,> 100 µM
same,TGI,HCT-15 colon,> 100 µM
same,TGI,SF-268 CNS,> 100 µM
CC1(C(O)c2ccccc2)CN(C(C)(C)C)C(=O)/C1=C\Sc1ccccc1 (stereo unspecified),TGI,CAKI-1 renal,> 100 µM
same,TGI,SN12C renal,> 100 µM
same,TGI,A549 NSCLC,> 100 µM
same,TGI,M14 melanoma,> 100 µM
same,TGI,SK-MEL-2 melanoma,> 100 µM
same,TGI,HCC-2998 colon,> 100 µM
same,TGI,SK-OV-3 ovarian,> 100 µM
same,TGI,A498 renal,> 100 µM
same,TGI,OVCAR-4 ovarian,> 100 µM
same,TGI,OVCAR-8 ovarian,> 100 µM
same,TGI,HL-60(TB) leukemia,> 100 µM
same,TGI,SNB-19 CNS,> 100 µM
same,TGI,SK-MEL-28 melanoma,> 100 µM
same,TGI,OVCAR-3 ovarian,> 100 µM
same,TGI,OVCAR-5 ovarian,> 100 µM
same,TGI,CCRF-CEM leukemia,> 100 µM
same,TGI,RPMI-8226 leukemia,> 100 µM
same,TGI,HCT-116 colon,> 100 µM
same,TGI,IGROV1 ovarian,> 100 µM
same,TGI,U251 CNS,> 100 µM
same,TGI,ACHN renal,> 100 µM
same,TGI,COLO 205 colon,50.7 µM
same,TGI,MCF7 breast,> 100 µM
same,TGI,SK-MEL-5 melanoma,> 100 µM
same,TGI,UACC-62 melanoma,> 100 µM
same,TGI,MDA-MB-435,> 100 µM
same,TGI,K-562 leukemia,> 100 µM
same,TGI,TK-10 renal,> 100 µM
same,TGI,SF-539 CNS,> 100 µM
same,TGI,UACC-257 melanoma,95.2 µM
same,TGI,MDA-N,> 100 µM
same,TGI,NCI-H23 lung,> 100 µM
same,TGI,DU-145 prostate,> 100 µM
same,TGI,SW-620 colon,> 100 µM
same,TGI,LOX IMVI melanoma,32.1 µM
same,TGI,BT-549 breast,> 100 µM
same,TGI,HOP-62 NSCLC,> 100 µM
same,TGI,MOLT-4 leukemia,> 100 µM
same,TGI,NCI-H522 lung,22.9 µM
same,TGI,UO-31 renal,> 100 µM
same,TGI,SR leukemia,> 100 µM
same,TGI,T-47D breast,> 100 µM
same,TGI,HT29 colon,79.8 µM
same,TGI,MDA-MB-231 breast,> 100 µM
same,TGI,786-0 renal,> 100 µM
same,TGI,KM12 colon,> 100 µM
same,TGI,NCI/ADR-RES ovarian,> 100 µM
same,TGI,PC-3 prostate,> 100 µM
same,TGI,HOP-92 NSCLC,21.7 µM
same,TGI,EKVX NSCLC,> 100 µM
same,TGI,SF-295 CNS,> 100 µM
same,TGI,HCT-15 colon,> 100 µM
same,TGI,SF-268 CNS,43.5 µM
